Assay results from patent US20130203635A1, “NUCLEIC ACID LIGATION METHOD” (priority 2012, published 2013).

T1: Pyrococcus horikoshii Archease
T1 chain: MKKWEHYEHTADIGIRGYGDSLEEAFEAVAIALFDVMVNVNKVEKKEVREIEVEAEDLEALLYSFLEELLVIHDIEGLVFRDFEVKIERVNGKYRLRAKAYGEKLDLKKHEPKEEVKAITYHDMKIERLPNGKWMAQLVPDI


Legend:
[1] = system: Escherichia coli RtcB ligase; assay: E. coli RtcB RNA ligation assay (3′-P and 5′-OH termini, urea-polyacrylamide gel); type: biochemical
From the text: FIG. 1. […] (A) RNA ligation substrate that mimics a broken tRNA anti-codon. FAM label allows visualization in a urea-polyacrylamide gel. […] (B) Cofactor- and metal-dependence of ligation. Reactions contain manganese, except in the “—Mn^2+” lane. The lane labeled “C78A” is a ligation reaction performed with RtcB that has a C78A substitution within the predicted metal binding site. (C) Ligation assays using GTP analogues as cofactors. […] (E) RNA termini specificity of RtcB. Modifications to the ligatable ends of the tRNA mimic substrate were made as indicated and tested in ligation reactions.
To assay for ligation, we initially used two single-stranded RNA (ssRNA) oligos that were each 10 nucleotides in length. The 5′ RNA fragment was labeled with 6-carboxyfluorescein (FAM) at its 5′ end and phosphorylated at its 3′ end. The 3′ RNA fragment had hydroxyl groups at each end. We intended to convert the 3′-P into a 2′,3′-cyclic phosphate by incubation with RtcA and ATP, so as to produce a suitable substrate for RtcB.
These reactions were performed with high concentrations of GTP analogues to ensure saturation of RtcB.
We investigated the RNA termini structure requirements for ligation by modifying the ends of our tRNA mimic substrate. First, all four combinations of either a phosphate or hydroxyl group at each termini were sampled while maintaining a 2′-OH on the 5′ side of the ligation junction. […] Next, the importance of the terminal ribose 2′-OH for ligation was probed by replacing this hydroxyl group with either hydrogen (2′-H) or fluorine (2′-F).

[2] = target: E. coli RtcA (Escherichia coli, UniProt P46849); details: read-out: ATP KM; cited from earlier work
E. coli RtcA, sequence (P46849 whole entry): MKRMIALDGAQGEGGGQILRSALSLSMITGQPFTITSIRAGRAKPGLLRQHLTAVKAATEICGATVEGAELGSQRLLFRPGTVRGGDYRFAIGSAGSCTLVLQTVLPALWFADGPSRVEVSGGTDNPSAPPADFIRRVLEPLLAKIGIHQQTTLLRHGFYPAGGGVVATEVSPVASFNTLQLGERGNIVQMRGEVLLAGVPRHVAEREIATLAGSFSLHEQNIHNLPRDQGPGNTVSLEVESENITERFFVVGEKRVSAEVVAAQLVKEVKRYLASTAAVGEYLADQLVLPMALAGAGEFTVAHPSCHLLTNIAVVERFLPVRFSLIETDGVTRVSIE

[3] = system: P. horikoshii RtcB; assay: P. horikoshii RtcB RNA ligation assay; type: biochemical, Pyrococcus horikoshii; details: Archease 0.25 μM, NTP 100 μM, RtcB 5 μM (FIG. 10B, 11B)
From the text: FIG. 2. P. horikoshii RtcB catalyzed ligation of 3′-P and 5′-OH RNA termini. P. horikoshii RtcB requires Mn^2+ and GTP for ligation. […] The lane labeled “2′-deoxy” is a ligation reaction using the tRNA mimic substrate but with a 3′-P/2′-H termini on its 5′ fragment. The lane labeled “C98A” is a ligation reaction with RtcB that has a C98A substitution within the predicted metal-binding site.
RtcB from the archaeal domain of life likewise catalyzes the GTP-dependent ligation of 3′-P and 5′-OH RNA termini. The crystal structure of RtcB from a hyperthermophilic archaeon, Pyrococcus horikoshii, was determined as part of a structural genomics project (21). […] The P. horikoshii homologue has 29% amino-acid sequence identity to E. coli RtcB, and 49% identity to the human ligase (HSPC117). To investigate if RtcB from archaea catalyzes the GTP-dependent ligation of 3′-P and 5′-OH RNA termini, we synthesized a P. horikoshii rtcB gene and produced soluble enzyme in E. coli. […] The P. horikoshii ligase also required a 2′-OH on the terminal nucleotide of the 5′ RNA fragment.
RNA Ligation Assay. Ligation assays with single-stranded RNA as the substrate used two 10-nt oligonucleotides that were synthesized by Integrated DNA Technologies (15). […] The 3′ RNA fragment had hydroxyl groups on each end. The sequence of the 5′ fragment was FAM-5′-AAAUAACAAA-3′-P (SEQ ID NO:6) and the sequence of the 3′ RNA fragment was 5′-AAAUAACAAA-3′ (SEQ ID NO:6). Ligation reactions were performed in 10-μL solutions consisting of 50 mM Bis-Tris buffer, pH 7.0, containing NaCl (300 mM), […] (0.25 mM), GTP (100 μM), each RNA fragment (1 μM), and RtcB (10 μM). Reaction mixtures were incubated at 70° C. for 1 h prior to the addition of water (40 μL) and RNA-loading buffer (50 μL). Reaction mixtures were subjected to electrophoresis and visualized as previously described in the previous examples.
The ability of Archease to activate P. horikoshii RtcB was tested in reactions using ssRNA substrates. Ligation reactions included a 10-nt 5′ RNA fragment and a 10-nt 3′ RNA fragment. […] The 3′ RNA fragment had hydroxyl groups on each end. The sequence of the 5′ fragment was FAM-5′-AAAUAACAAA-3′-P (SEQ ID NO:6) and the sequence of the 3′ RNA fragment was 5′-AAAUAACAAA-3′ (SEQ ID NO:6). Ligation reactions were performed in 50-μL solutions consisting of 50 mM Tris-HCl buffer, pH 7.4, containing NaCl (300 mM), MnCl2 (0.25 mM), GTP (100 μM), RNA fragments (100 pmol of each), and P. horikoshii RtcB (5 μM).
Ligation reaction mixtures were set up as described above, and each was divided into two tubes. No Archease was added to one set of reaction mixtures (FIG. 10A), and Archease was added to a concentration of 0.25 μM to the other set (FIG. 10B). […] Archease had no effect on ligation reactions that used 2′-F RNA.
We tested the ability of Archease to enable RtcB to use cofactors other than GTP or dGTP. Ligation reaction mixtures with RtcB were set up as described above, and each was divided into two tubes. No Archease was added to one set of reaction mixtures (FIG. 11A), and Archease was added to a concentration of 0.25 μM to the other set (FIG. 11B). The various NTPs were included at a concentration of 100 μM.

[4] = target: human RtcA (Homo sapiens, UniProt O00442); details: read-out: ATP KM; cited from earlier work
human RtcA, sequence (O00442 whole entry): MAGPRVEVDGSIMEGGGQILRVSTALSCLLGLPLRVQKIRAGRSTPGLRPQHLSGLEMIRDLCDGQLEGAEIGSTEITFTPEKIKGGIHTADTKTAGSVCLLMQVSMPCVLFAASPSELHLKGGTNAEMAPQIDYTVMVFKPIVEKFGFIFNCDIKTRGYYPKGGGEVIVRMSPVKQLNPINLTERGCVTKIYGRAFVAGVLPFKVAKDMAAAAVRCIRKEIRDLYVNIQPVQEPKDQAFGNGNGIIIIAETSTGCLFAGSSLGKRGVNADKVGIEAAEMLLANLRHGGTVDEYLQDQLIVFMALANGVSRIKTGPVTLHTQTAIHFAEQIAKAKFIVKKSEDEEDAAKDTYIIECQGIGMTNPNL

[5] = system: P. horikoshii RtcB; assay: 14C-labeled GTP binding assay; set-up: species or system Pyrococcus horikoshii
Protocol: Structure of the RtcB-Histidine-GMP Covalent Intermediate. To determine the optimal reaction conditions that enable formation of the RtcB-GMP covalent intermediate, ^14C-labeled GTP binding studies were performed (7). […] Under these conditions, the maximal GMP:RtcB molar ratio was determined to be (0.76±0.02):1. No binding of GTP to RtcB was detected in the absence of Mn(II). Using these reaction conditions, we formed the RtcB-GMP intermediate and removed unbound Mn(II), GTP, and PPi by gel-filtration chromatography. The protein was concentrated to 200 μM, and crystals of this complex diffracted to a resolution of 2.4 Å.
^14C-labeled GTP Binding Assays. […] Absorbance readings at A260 and A280 were obtained for each fraction. The protein fractions have high A280 readings, whereas the fractions with free GTP have higher A260 readings. In fractions containing protein, the RtcB concentrations were calculated from the A280 reading using an extinction coefficient of 62,340 M^−1 cm^−1 (ExPASy). The concentration of [8-^14C]GTP in the protein fractions was determined by liquid scintillation counting. Each 0.5-mL fraction was mixed with 3.5 mL of Ultima Gold MV liquid scintillation cocktail (Perkin Elmer) in a 4-mL vial, and counts were read on a MicroBeta TriLux liquid scintillation counter (Perkin Elmer). […] Under these conditions, the GTP:RtcB molar ratio was determined to be (0.76±0.02):1. […]

[6] = target: T1, Pyrococcus horikoshii Archease

Molecule | use as cofactor in ligation of 3′-P and 5′-OH RNA termini ([1]; in place of GTP, tRNA anticodon stem-loop mimic substrate, with Mn2+ (FIG. 1B, 1C)) | Km [2] [µM] | use as cofactor in RNA ligation with Archease [3] | Km [4] [µM] | Km ([1]; titration with GTP, tRNA mimic substrate (FIG. 1D)) [µM] | maximal GMP:RtcB (GTP:RtcB) molar ratio ([5]; RtcB 100 μM, GTP 1 mM, MnCl2 2 mM, 70° C. for 45 min) | binding of GTP to RtcB ([5]; in the absence of Mn(II)) | RNA ligation (urea-polyacrylamide gel of FAM-labeled ssRNA substrate and product) [6]
Nc1ncnc2c1ncn2[C@@H]1O[C@H](COP(=O)(O)OP(=O)(O)OP(=O)(O)O)[C@@H](O)[C@H]1O [ATP, adenosine-5′-triphosphate] | unable to substitute for GTP | 20 | enables RtcB to use ATP | 6 |  |  |  | 
Nc1nc2c(ncn2[C@@H]2O[C@H](COP(=O)(O)OP(=O)(O)OP(=O)(O)O)[C@@H](O)[C@H]2O)c(=O)[nH]1 [GTP, guanosine-5′-triphosphate] |  |  | selectively activated |  | < 16 | 0.76±0.02 | No binding | 
Pyrococcus horikoshii 2',3'-cyclic phosphate RNA ligase (RtcB) (protein) MVVPLKRIDKIRWEIPKFDKRMRVPGRVYADEVLLEKMKNDRTLEQATNVAMLPGIYKYSIVMPDGHQGYGFPIGGVAAFDVKEGVISPGGIGYDINCGVRLIRTNLTEKEVRPRIKQLVDTLFKNVPSGVGSQGRIKLHWTQIDDVLVDGAKWAVDNGYGWERDLERLEEGGRMEGADPEAVSQRAKQRGAPQLGSLGSGNHFLEVQVVDKIFDPEVAKAYGLFEGQVVVMVHTGSRGLGHQVASDYLRIMERAIRKYRIPWPDRELVSVPFQSEEGQRYFSAMKAAANFAWANRQMITHWVRESFQEVFKQDPEGDLGMDIVYDVAHNIGKVEEHEVDGKRVKVIVHRKGATRAFPPGHEAVPRLYRDVGQPVLIPGSMGTASYILAGTEGAMKETFGSTCHGAGRVLSRKAATRQYRGDRIRQELLNRGIYVRAASMRVVAEEAPGAYKNVDNVVKVVSEAGIAKLVARMRPIGVAKG |  |  |  |  |  |  |  | the addition of Archease at concentrations that are lower than that of RtcB or RNA enhanced catalysis of RNA ligation
